Laboratory results published in ChEMBL document CHEMBL4308841, “Synthesis, in vitro antiproliferative activity, and kinase inhibitory effects of pyrazole-containing diarylureas and diarylamides” (Eur J Med Chem, 2018).

Experiments:
Format in all cases: functional
CCRF-CEM = assay: Growth inhibition of human CCRF-CEM cells assessed as cell growth at 10 uM incubated for 48 hrs by sulforhodamine B assay relative to control; settings: read-out: Activity
HL-60(TB) = assay: Growth inhibition of human HL-60(TB) cells assessed as cell growth at 10 uM incubated for 48 hrs by sulforhodamine B assay relative to control; settings: HL-60, 48 h, read-out: Activity
MOLT-4 = assay: Growth inhibition of human MOLT4 cells assessed as cell growth at 10 uM incubated for 48 hrs by sulforhodamine B assay relative to control; settings: MOLT-4, 48 h, read-out: Activity
SR = assay: Growth inhibition of human SR cells assessed as cell growth at 10 uM incubated for 48 hrs by sulforhodamine B assay relative to control; settings: read-out: Activity
A549 = assay: Growth inhibition of human A549/ATCC cells assessed as cell growth at 10 uM incubated for 48 hrs by sulforhodamine B assay relative to control; settings: A549, 48 h, read-out: Activity
NCI-H226 = assay: Growth inhibition of human NCI-H226 cells assessed as cell growth at 10 uM incubated for 48 hrs by sulforhodamine B assay relative to control; settings: NCI-H226, 48 h, read-out: Activity
NCI-H460 = assay: Growth inhibition of human NCI-H460 cells assessed as cell growth at 10 uM incubated for 48 hrs by sulforhodamine B assay relative to control; settings: NCI-H460, 48 h, read-out: Activity
COLO 205 = assay: Growth inhibition of human COLO205 cells assessed as cell growth at 10 uM incubated for 48 hrs by sulforhodamine B assay relative to control; settings: COLO 205, 48 h, read-out: Activity
HCT-116 = assay: Growth inhibition of human HCT116 cells assessed as cell growth at 10 uM incubated for 48 hrs by sulforhodamine B assay relative to control; settings: HCT-116, 48 h, read-out: Activity
HCT-15 = assay: Growth inhibition of human HCT15 cells assessed as cell growth at 10 uM incubated for 48 hrs by sulforhodamine B assay relative to control; settings: HCT-15, 48 h, read-out: Activity
SF-268 = assay: Growth inhibition of human SF268 cells assessed as cell growth at 10 uM incubated for 48 hrs by sulforhodamine B assay relative to control; settings: SF-268, 48 h, read-out: Activity
SF-295 = assay: Growth inhibition of human SF295 cells assessed as cell growth at 10 uM incubated for 48 hrs by sulforhodamine B assay relative to control; settings: SF-295, 48 h, read-out: Activity
SNB-75 = assay: Growth inhibition of human SNB75 cells assessed as cell growth at 10 uM incubated for 48 hrs by sulforhodamine B assay relative to control; settings: SNB-75, 48 h, read-out: Activity
U-251 = assay: Growth inhibition of human U251 cells assessed as cell growth at 10 uM incubated for 48 hrs by sulforhodamine B assay relative to control; settings: U-251, 48 h, read-out: Activity
LOX IMVI = assay: Growth inhibition of human LOXIMVI cells assessed as cell growth at 10 uM incubated for 48 hrs by sulforhodamine B assay relative to control; settings: read-out: Activity
MDA-MB-435 = assay: Growth inhibition of human MDA-MB-435 cells assessed as cell growth at 10 uM incubated for 48 hrs by sulforhodamine B assay relative to control; settings: MDA-MB-435, 48 h, read-out: Activity
SK-MEL-28 = assay: Growth inhibition of human SK-MEL-28 cells assessed as cell growth at 10 uM incubated for 48 hrs by sulforhodamine B assay relative to control; settings: SK-MEL-28, 48 h, read-out: Activity
SK-MEL-5 = assay: Growth inhibition of human SK-MEL-5 cells assessed as cell growth at 10 uM incubated for 48 hrs by sulforhodamine B assay relative to control; settings: SK-MEL-5, 48 h, read-out: Activity
UACC-257 = assay: Growth inhibition of human UACC257 cells assessed as cell growth at 10 uM incubated for 48 hrs by sulforhodamine B assay relative to control; settings: UACC-257, 48 h, read-out: Activity
UACC-62 = assay: Growth inhibition of human UACC62 cells assessed as cell growth at 10 uM incubated for 48 hrs by sulforhodamine B assay relative to control; settings: UACC-62, 48 h, read-out: Activity
OVCAR-4 = assay: Growth inhibition of human OVCAR4 cells assessed as cell growth at 10 uM incubated for 48 hrs by sulforhodamine B assay relative to control; settings: OVCAR-4, 48 h, read-out: Activity
OVCAR-5 = assay: Growth inhibition of human OVCAR5 cells assessed as cell growth at 10 uM incubated for 48 hrs by sulforhodamine B assay relative to control; settings: OVCAR-5, 48 h, read-out: Activity
SK-OV-3 = assay: Growth inhibition of human SKOV3 cells assessed as cell growth at 10 uM incubated for 48 hrs by sulforhodamine B assay relative to control; settings: SK-OV-3, 48 h, read-out: Activity
786-0 = assay: Growth inhibition of human 786-0 cells assessed as cell growth at 10 uM incubated for 48 hrs by sulforhodamine B assay relative to control; settings: 786-0, 48 h, read-out: Activity
A498 = assay: Growth inhibition of human A498 cells assessed as cell growth at 10 uM incubated for 48 hrs by sulforhodamine B assay relative to control; settings: A498, 48 h, read-out: Activity
ACHN = assay: Growth inhibition of human ACHN cells assessed as cell growth at 10 uM incubated for 48 hrs by sulforhodamine B assay relative to control; settings: read-out: Activity
CAKI-1 = assay: Growth inhibition of human Caki1 cells assessed as cell growth at 10 uM incubated for 48 hrs by sulforhodamine B assay relative to control; settings: CAKI-1, 48 h, read-out: Activity
SN12C = assay: Growth inhibition of human SN12C cells assessed as cell growth at 10 uM incubated for 48 hrs by sulforhodamine B assay relative to control; settings: read-out: Activity
UO-31 = assay: Growth inhibition of human UO31 cells assessed as cell growth at 10 uM incubated for 48 hrs by sulforhodamine B assay relative to control; settings: UO-31, 48 h, read-out: Activity
PC-3 = assay: Growth inhibition of human PC3 cells assessed as cell growth at 10 uM incubated for 48 hrs by sulforhodamine B assay relative to control; settings: PC-3, 48 h, read-out: Activity
DU-145 = assay: Growth inhibition of human DU145 cells assessed as cell growth at 10 uM incubated for 48 hrs by sulforhodamine B assay relative to control; settings: DU-145, 48 h, read-out: Activity
Hs-578T = assay: Growth inhibition of human Hs578T cells assessed as cell growth at 10 uM incubated for 48 hrs by sulforhodamine B assay relative to control; settings: read-out: Activity
T47D = assay: Growth inhibition of human T47D cells assessed as cell growth at 10 uM incubated for 48 hrs by sulforhodamine B assay relative to control; settings: read-out: Activity

Structure (SMILES) | growth at 10 µM (CCRF-CEM) | growth at 10 µM (HL-60(TB)) | growth at 10 µM (MOLT-4) | growth at 10 µM (SR) | growth at 10 µM (A549) | growth at 10 µM (NCI-H226) | growth at 10 µM (NCI-H460) | growth at 10 µM (COLO 205) | growth at 10 µM (HCT-116) | growth at 10 µM (HCT-15) | growth at 10 µM (SF-268) | growth at 10 µM (SF-295) | growth at 10 µM (SNB-75) | growth at 10 µM (U-251) | growth at 10 µM (LOX IMVI) | growth at 10 µM (MDA-MB-435) | growth at 10 µM (SK-MEL-28) | growth at 10 µM (SK-MEL-5) | growth at 10 µM (UACC-257) | growth at 10 µM (UACC-62) | further results
O=C(Nc1cccc(-n2cc(-c3ccncc3)c(-c3cc(O)cc(Cl)c3)n2)c1)Nc1ccc(Cl)c(Cl)c1 | 4.11% | -23.4% | -27.1% | -21.4% | 3.96% | 14.5% | 0.21% | 22.4% | -57.3% | -25.3% | 16.2% | -50.5% | 4.08% | -56.5% | -84.7% | -33.3% | -50.9% | -53% | -70.7% | -61.8% | growth at 10 µM (OVCAR-4): 10.7%; growth at 10 µM (OVCAR-5): -2.26%; growth at 10 µM (SK-OV-3): 13.2%; growth at 10 µM (786-0): -72.1%; growth at 10 µM (A498): -2.98%; growth at 10 µM (ACHN): 6.85%; growth at 10 µM (CAKI-1): 5.31%; growth at 10 µM (SN12C): 14.9%; growth at 10 µM (UO-31): -41.2%; growth at 10 µM (PC-3): -1.66%; growth at 10 µM (DU-145): -15.1%; growth at 10 µM (Hs-578T): -6.42%; growth at 10 µM (T47D): -5.53%
COc1cc(Cl)cc(-c2nn(-c3cccc(NC(=O)c4cccc(C(F)(F)F)c4)c3)cc2-c2ccncc2)c1 | 42.3% | 67.3% | 29% | 29.1% | 39.1% | 69% | 41.1% | 68.5% | 34.1% | 33.2% | 77.3% | 37.9% | 53.9% | 49.2% | 51.7% | 65.6% | 70.3% | 70.7% | 68.7% | 74.5% | growth at 10 µM (OVCAR-4): 71.8%; growth at 10 µM (OVCAR-5): 84%; growth at 10 µM (SK-OV-3): 81.6%; growth at 10 µM (786-0): 66.6%; growth at 10 µM (A498): 21.2%; growth at 10 µM (ACHN): 48.1%; growth at 10 µM (CAKI-1): 54%; growth at 10 µM (SN12C): 65.8%; growth at 10 µM (UO-31): 37.2%; growth at 10 µM (PC-3): 23.1%; growth at 10 µM (DU-145): 83.8%; growth at 10 µM (Hs-578T): 62.2%; growth at 10 µM (T47D): 36.6%
O=C(Nc1cccc(-n2cc(-c3ccncc3)c(-c3cc(O)cc(Cl)c3)n2)c1)c1ccc(N2CCOCC2)c(C(F)(F)F)c1 | 13.1% | -46.4% | -29.7% | -12.4% | 9.62% | 94.7% | -26.1% | 80.5% | 12.7% | 6.25% | 52.7% | -35.4% | 23.1% | -9.64% | -48.7% | 23% | -52.4% | 32.2% | 9.38% | 10.8% | growth at 10 µM (OVCAR-4): 77.1%; growth at 10 µM (OVCAR-5): 81.4%; growth at 10 µM (SK-OV-3): 50.7%; growth at 10 µM (786-0): 36.6%; growth at 10 µM (A498): 72.7%; growth at 10 µM (ACHN): 20.7%; growth at 10 µM (CAKI-1): 14.8%; growth at 10 µM (SN12C): 46.4%; growth at 10 µM (UO-31): 3.98%; growth at 10 µM (PC-3): 19.1%; growth at 10 µM (DU-145): 38%; growth at 10 µM (Hs-578T): 17.9%; growth at 10 µM (T47D): 29.3%
